In US20220378756A1, “ACTIVATING PYRUVATE KINASE R” (FORMA Therapeutics, Inc., priority 2019, published 2022):

Assay: Phase 1 SAD/MAD, healthy volunteers: pharmacokinetics
Type: in vivo, human
From the text: This is a first-in-human (FIH), Phase 1 study of Compound 1 that will characterize the safety, PK, and PD of Compound 1 after a single dose and after repeated dosing first in healthy adult volunteers and then in adolescents or adults with sickle cell disease. Initially, a dose range of Compound 1 in single ascending dose (SAD) escalation cohorts will be explored in healthy subjects. Enrollment of healthy subjects into 2-week multiple ascending dose (MAD) escalation cohorts will be initiated once the safety and PK from at least two SAD cohorts is available to inform the doses for the 2-week MAD portion of the study. The MAD cohorts will then run in parallel to the single dose cohorts. A single dose cohort is planned to understand food effects (FE) on the PK of Compound 1. […] Multiple dose studies in SCD subjects will then be initiated upon completion of MAD studies in healthy volunteers. Compound 1 will be administered in 25 mg and 100 mg tablets delivered orally.
In this study, SAD/MAD cohorts are randomized (3 to 1) to receive Compound 1 or placebo (P). Compound 1 was evaluated first in 4 healthy SAD cohorts and 4 healthy MAD (14-day dosing period) cohorts. Based on the safety, and PK/PD profile from HS, Compound 1 is then evaluated in 1 SCD SAD cohort and 2 SCD MAD cohorts. Specifically, based on the safety and pharmacokinetic/pharmacodynamics (PK/PD) profile in healthy volunteer studies, Compound 1 is evaluated in patients (pts) with SCD, first in a single dose (SD or SAD) cohort and then in multiple-dose (MD or MAD) cohorts (14-day and 12-week). Safety assessments include AEs, vital signs, ECGs and laboratory parameters. PK/PD blood sampling was performed on Day 1 (SAD/MAD) and Day 14 (MAD) and up to 72 h after the last dose and at the end-of-study visit. […]
Four healthy SAD cohorts were evaluated at doses of 200, 400, 700, and 1000 mg, and four healthy MAD cohorts received 200 to 600 mg total daily doses for 14 days at QD or BID dosing (100 mg BID, 200 mg BID, 300 mg BID, and 400 mg QD). […]

## O=C([C@H](CO)c1ccccc1)N1CC2=C(C1)CN(S(=O)(=O)c1cnc3c(c1)OCCO3)C2 (single isomer, unassigned) [Compound 1]
Food effect cohort, 200 mg
  exposure under fed/fasted conditions: similar
Healthy subjects, 14 days of dosing
  observed clearance on day 1 and day 14: unchanged
Healthy volunteers, single dose 400 mg, FIG. 43
  time of pharmacokinetic maximum: 1 to 2 h
